The values below come from patent US10508085B2, “Compounds and methods for IDO and TDO modulation, and indications therefor” (Plexxikon Inc., priority 2016, dated 2019).

Like-named read-outs stand apart in the source and are kept apart here. A value given as a limit tells only on which side of the number the result lay.

For assay [1], the target named is T1, Human Indoleamine 2,3-dioxygenase (IDO) (Homo sapiens, UniProt P14902).
T1 construct: His tag (N); made in house; host or cells: E. coli
As to the kind of experiment: Human IDO enzymatic assay (kynurenine level). The note with it: 6 nM IDO, 10 μM L-Trp; geometric mean; read-out: IDO1 GMean: IC50 (μM) (Biochemical Assay). In kind it is biochemical. In outline: (§1)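 Compound is mixed with His-tagged enzyme from E. coli in pH 6.5 phosphate buffer containing ascorbate, methylene blue and catalase, at room temperature. IDO uses 6 nM enzyme and 10 μM Trp for 20 min. TDO uses 1 nM enzyme and 350 μM Trp for 70 min. TCA stops the reaction, and IC50 is derived from kynurenine levels.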

Assay [2] addresses T2, Human Tryptophan 2,3-dioxygenase (TDO) (Homo sapiens, UniProt P48775).
T2 construct: His tag (N); made in house; host or cells: E. coli
As to the kind of experiment: Human TDO enzymatic assay (kynurenine level). In kind it is biochemical. The note with it: 1 nM TDO, 350 μM L-Trp; geometric mean; read-out: TDO GMean: IC50 (μM) (Biochemical Assay). In outline:
as §1

For assay [3], the target named is T3, human IDO (IDO1-expressing HEK293 cells) (Homo sapiens, UniProt P14902).
T3 construct: expressed in transfected cells
The experiment in a line: Cell based kynurenine assay, IDO1-expressing HEK293 cell clones. Particulars: IDO1-expressing HEK293 cells, geometric mean, read-out: HEK293 IDO1 Kynurenine GMean IC50 (μM) (Cellular Assay). Summed up: (§2)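 Stably transfected HEK293 clones expressing human IDO1 or TDO (CMV promoter) were seeded at 2.5×10^4 cells/well and treated with serially diluted compounds for 24 h. Supernatant kynurenine was then measured, and % inhibition versus DMSO-treated cell and media-only controls was fitted by nonlinear regression to give IC50.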

Assay [4] deals with T4, human TDO (TDO-expressing HEK293 cells) (Homo sapiens, UniProt P48775).
T4 construct: expressed in transfected cells
The experiment in a line: Cell based kynurenine assay, TDO-expressing HEK293 cell clones. Particulars: TDO-expressing HEK293 cells, geometric mean, read-out: HEK293 TDO Kynurenine GMean IC50 (μM) (Cellular Assay). Summed up:
as §2

What is called IC50 is the concentration at which inhibition is half-maximal.

T2 sequence (P48775 whole entry): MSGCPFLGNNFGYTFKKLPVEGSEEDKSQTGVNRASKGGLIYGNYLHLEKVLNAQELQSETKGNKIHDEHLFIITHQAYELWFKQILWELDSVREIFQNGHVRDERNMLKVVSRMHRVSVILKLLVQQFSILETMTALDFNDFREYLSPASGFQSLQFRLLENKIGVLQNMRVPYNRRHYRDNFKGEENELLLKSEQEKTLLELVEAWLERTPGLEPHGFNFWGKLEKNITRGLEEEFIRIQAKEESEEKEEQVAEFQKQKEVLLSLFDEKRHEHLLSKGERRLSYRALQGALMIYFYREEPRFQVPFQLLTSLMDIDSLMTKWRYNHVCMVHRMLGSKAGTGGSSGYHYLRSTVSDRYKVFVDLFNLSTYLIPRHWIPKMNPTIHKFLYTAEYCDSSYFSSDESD
T4 sequence (P48775 whole entry): as above
T3 sequence (P14902 whole entry): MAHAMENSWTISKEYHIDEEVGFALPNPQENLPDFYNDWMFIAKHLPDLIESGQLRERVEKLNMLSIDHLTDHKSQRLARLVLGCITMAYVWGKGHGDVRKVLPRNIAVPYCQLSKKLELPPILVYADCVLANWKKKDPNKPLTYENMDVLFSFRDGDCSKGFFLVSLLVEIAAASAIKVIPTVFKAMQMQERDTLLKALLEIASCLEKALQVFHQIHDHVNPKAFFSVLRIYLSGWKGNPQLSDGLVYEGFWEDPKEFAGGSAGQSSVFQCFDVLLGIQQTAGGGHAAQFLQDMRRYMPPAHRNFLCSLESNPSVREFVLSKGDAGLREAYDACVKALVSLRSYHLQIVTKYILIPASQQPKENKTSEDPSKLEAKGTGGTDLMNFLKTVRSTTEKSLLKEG
T1 sequence (P14902 whole entry): as above

Consider `CC(C)(C1CCN(C(=O)CC2CCS(=O)(=O)CC2)CC1)[C@H](O)c1cc(Cl)cc2cn[nH]c12` [Compound P-0502, (S)-1-(4-(1-(5-chloro-1H-indazol-7-yl)-1-hydroxy-2-methylpropan-2-yl)piperidin-1-yl)-2-(1,1-dioxidotetrahydro-2H-thiopyran-4-yl)ethan-1-one], for which the IC50 in assay [1], in assay [2], in assay [3] (24 hours) and in assay [4] (24 hours) was 0.0001 to 10 µM each time.
As for `COCCCNC(=O)N1CCC(C(C)(C)[C@H](O)c2cc(Cl)cc3cn[nH]c23)CC1` [Compound P-0553, (S)-4-(1-(5-chloro-1H-indazol-7-yl)-1-hydroxy-2-methylpropan-2-yl)-N-(3-methoxypropyl) piperidine-1-carboxamide], the IC50 in assay [1], in assay [2], in assay [3] (24 hours) and in assay [4] (24 hours) was 0.0001 to 10 µM each time.
Consider `Cc1ccc2cn[nH]c2c1C(O)C12CC3CC(CC(C3)C1)C2` (stereo not shown) [Compound P-0037, ((ls,3s)-adamantan-1-yl)(6-methyl-1H-indazol-7-yl)methanol], for which the IC50 in assay [1] is 0.0001 to 10 µM; in assay [2] it was 0.0001 to 10 µM; in assay [3] (24 hours incubation) it was 0.0001 to 10 µM; in assay [4] (24 hours incubation) it was more than 10 µM.
As to `COC12CCC(C(O)c3c(F)c(Cl)cc4cn[nH]c34)(CC1)CC2` (stereo not shown) [Compound P-0137, (5-chloro-6-fluoro-1H-indazol-7-yl)(4-methoxybicyclo[2.2.2]octan-1-yl)methanol], the IC50 in assay [1], in assay [2], in assay [3] (24 hours incubation) and in assay [4] (24 hours incubation) was 0.0001 to 10 µM in each case.
Consider `CC(C)(C(O)c1cc(Cl)cc2cn[nH]c12)N1CCCCC1` (stereo not shown) [Compound P-0216, 1-(5-chloro-1H-indazol-7-yl)-2-methyl-2-(piperidin-1-yl)propan-1-ol], for which the IC50 is more than 200 µM in assay [1], 10 to 100 µM in assay [2], more than 10 µM in assay [3] (24 hours incubation) and more than 10 µM in assay [4] (24 hours incubation).
Turning to `OC(c1cccc2cncn12)C1CCC1` (stereo not shown) [Compound P-0080, cyclobutyl(imidazo[1,5-a]pyridin-5-yl)methanol], the IC50 in assay [1] was 0.0001 to 10 µM; in assay [2], 0.0001 to 10 µM; in assay [3] (24 hours incubation), more than 10 µM; in assay [4] (24 hours incubation), more than 10 µM.
As for `CC(C)(C)OC(=O)N1CCC(C(F)(F)[C@@H](O)c2c3c(cc4cn[nH]c24)CC3)CC1` [Compound P-0528, tert-butyl (S)-4-(2-(5,6-dihydro-1H-cyclobuta[f]indazol-7-yl)-1,1-difluoro-2-hydroxyethyl) piperidine-1-carboxylate], the IC50 was 0.0001 to 10 µM in assay [1], more than 200 µM in assay [2], 0.0001 to 10 µM in assay [3] (24 hours) and 0.0001 to 10 µM in assay [4] (24 hours).
Regarding `COC(=O)N1CCC(C2(C(O)c3cc(Cl)cc4cn[nH]c34)CC2)CC1` (stereo not shown) [Compound P-0155, methyl 4-(1-((5-chloro-1H-indazol-7-yl)(hydroxy)methyl)cyclopropyl)piperidine-1-carboxylate], the IC50 in assay [1], in assay [2], in assay [3] (24 hours incubation) and in assay [4] (24 hours incubation) was 0.0001 to 10 µM each time.
As for `CS(=O)(=O)N1C2CCC1CN(c1cc(Cl)cc3cn[nH]c13)C2` [Compound P-0093, 5-chloro-7-(8-(methylsulfonyl)-3,8-diazabicyclo[3.2.1]octan-3-yl)-1H-indazole], the IC50 in assay [1], in assay [2], in assay [3] (24 hours incubation) and in assay [4] (24 hours incubation) was 0.0001 to 10 µM each time.
`CC1(C)[C@H]2CCC3(CC(O)(c4cc(Cl)cc5cn[nH]c45)C3)[C@@H]1C2` (stereo partly shown) [Compound P-0190]: the IC50 in assay [1], in assay [2], in assay [3] (24 hours incubation) and in assay [4] (24 hours incubation) was 0.0001 to 10 µM each time.
`CC(C)(C1CCN(S(N)(=O)=O)CC1)C(O)c1cc(Cl)cc2cn[nH]c12` (stereo not shown) [Compound P-0324, 4-(1-(5-chloro-1H-indazol-7-yl)-1-hydroxy-2-methylpropan-2-yl)piperidine-1-sulfonamide]: the IC50 in assay [1], in assay [2], in assay [3] (24 hours incubation) and in assay [4] (24 hours incubation) was 0.0001 to 10 µM in each case.
`CC(C)(C1CCN(C(=O)NC[C@@H]2CCCO2)CC1)[C@H](O)c1cc(Cl)cc2cn[nH]c12` [Compound P-0566, 4-((S)-1-(5-chloro-1H-indazol-7-yl)-1-hydroxy-2-methylpropan-2-yl)-N-(((S)-tetrahydrofuran-2-yl)methyl)piperidine-1-carboxamide]: the IC50 in assay [1], in assay [2], in assay [3] (24 hours) and in assay [4] (24 hours) was 0.0001 to 10 µM in each case.
Regarding `CC(C)(C1CCN(C(=O)CC#N)CC1)[C@@H](O)c1cc(Cl)cc2cn[nH]c12` [Compound P-0436, (R)-3-(4-(1-(5-chloro-1H-indazol-7-yl)-1-hydroxy-2-methylpropan-2-yl)piperidin-1-yl)-3-oxopropanenitrile], the IC50 in assay [1], in assay [2], in assay [3] (24 hours) and in assay [4] (24 hours) was 0.0001 to 10 µM in each case.
Regarding `CS(=O)(=O)N1CCC(C2(C(O)c3c(F)c(Cl)cc4cn[nH]c34)CC2)CC1` (stereo not shown) [Compound P-0165, (5-chloro-6-fluoro-1H-indazol-7-yl)(1-(1-(methylsulfonyl)piperidin-4-yl)cyclopropyl)methanol], the IC50 in assay [1], in assay [2], in assay [3] (24 hours incubation) and in assay [4] (24 hours incubation) was 0.0001 to 10 µM throughout.
For the compound `CC(C)(C1CCN(C(=O)CC(F)(F)F)CC1)[C@H](O)c1cc(Cl)cc2cn[nH]c12` [Compound P-0531, (S)-1-(4-(1-(5-chloro-1H-indazol-7-yl)-1-hydroxy-2-methylpropan-2-yl)piperidin-1-yl)-3,3,3-trifluoropropan-1-one], the IC50 in assay [1], in assay [2], in assay [3] (24 hours) and in assay [4] (24 hours) was 0.0001 to 10 µM throughout.
Consider `OC(c1c(F)c(Cl)cc2cn[nH]c12)C12CCC(C(F)(F)F)(CC1)CC2` (stereo not shown) [Compound P-0301, (5-chloro-6-fluoro-1H-indazol-7-yl)(4-(trifluoromethyl)bicyclo[2.2.2]octan-1-yl)methanol], for which the IC50 in assay [1], in assay [2], in assay [3] (24 hours incubation) and in assay [4] (24 hours incubation) was 0.0001 to 10 µM throughout.
Consider `CC(C)(C1CCN(C(=O)Nc2cccc(F)c2)CC1)C(O)c1cc(Cl)cc2cn[nH]c12` (stereo not shown) [Compound P-0359, 4-(1-(5-chloro-1H-indazol-7-yl)-1-hydroxy-2-methylpropan-2-yl)-N-(3-fluorophenyl) piperidine-1-carboxamide], for which the IC50 in assay [1], in assay [2], in assay [3] (24 hours incubation) and in assay [4] (24 hours incubation) was 0.0001 to 10 µM in each case.
With `OC(c1cccc2cncn12)C1(F)CCC(F)(F)CC1` (stereo not shown) [Compound P-0062, imidazo[1,5-a]pyridin-5-yl(1,4,4-trifluorocyclohexyl)methanol], the IC50 was 0.0001 to 10 µM in assay [1], 0.0001 to 10 µM in assay [2], more than 10 µM in assay [3] (24 hours incubation) and more than 10 µM in assay [4] (24 hours incubation).
In the case of `NC(=O)N1CCC(C(F)(F)C(O)c2c(F)c(Cl)cc3cn[nH]c23)CC1` (stereo not shown) [Compound P-0379, 4-(2-(5-chloro-6-fluoro-1H-indazol-7-yl)-1,1-difluoro-2-hydroxyethyl) piperidine-1-carboxamide], the IC50 in assay [1], in assay [2], in assay [3] (24 hours incubation) and in assay [4] (24 hours incubation) was 0.0001 to 10 µM each time.
